# Measurements: US20160206577A1, “NOVEL DRUG FORMULATION” (FAB PHARMA SAS, priority 2013, published 2016)
# Tests used:
# [1] = test system: methicillin-resistant Staphylococcus aureus (MRSA 300); test: Systemic mouse infection model against MRSA; format: in vivo; details: CD-1 mice, combined n=3 studies
# Protocol: (§1) The aim of this study was to compare the in vivo efficacy of the prior art historical formulation with a novel nanosuspension of the present invention using a murine systemic infection model against both a susceptible (MSSA) and a methicillin resistant (MRSA) strains of S. aureus.
# (§2) Three independent studies were run against each isolate (one MSSA and one MRSA), the data for the three studies combined and analysis performed. Bacterial isolates were grown to log phase in a liquid culture. Bacteria were diluted in 8% mucin to a concentration to achieve at least 90% mortality within 48 hours after infection. Six CD-1 female mice, 18-20 grams, were allocated per compound (I) concentration and were infected with 0.5 ml of bacterial suspension via intraperitoneal injection. Five minutes post-infection, mice were treated via intravenous administration. A nanosuspension of the invention (prepared according to Example 3) was prepared fresh just prior to single IV dose delivery at 50, 100 and 200 mg/kg (dosage of compound (I)). The prior art historical formulation of compound (I) (formulated at 10 mg/mL in 20% HPBCD, and 1% glucose) and vancomycin (Sigma Aldrich) were also administered IV at one dose and were used as comparators. Infection control mice were dosed with saline. Survival was assessed for 48 hours post infection. Date of death was recorded and a Probit analysis was performed to determine the PD50 (50% protective dose).
# [2] = test system: methicillin-susceptible Staphylococcus aureus (MSSA); test: Systemic mouse infection model against MSSA; format: in vivo; details: CD-1 mice, combined n=3 studies
# Protocol: as §1, §2
# [3] = commercial intravenous formulations; cited from earlier work
# [4] = test system: Staphylococcus aureus MSSA, MRSA, VISA and VRSA strains; details: pathogenic MSSA; cited from earlier work
# [5] = cited from earlier work
# [6] = Particle size of suspensions made with concentrated aqueous PVP (solvent evaporation attempts); format: physicochemical; details: low molecular weight PVP (3,500 Da), concentrated aqueous polymer solution
# Excerpt: Alternative solvent evaporation systems such as oil-in-oil and water-in-oil systems were investigated, however large particle sizes were still observed. In an attempt to reduce solvent dissolution into the continuous phase of the oil-in-water system, the aqueous phase was saturated with different salts to reduce solvent solubility. However, little benefit was achieved through the use of the saturated salt systems, as large crystals were still observed. It was thought that the use of a concentrated aqueous polymer solution would disrupt or prevent crystal formation. Multiple molecular weights and concentrations of PVP were studied. […] In the expectation of further reducing the particle size (to <1 μm i.e. to nanoparticulate form) further surfactants were added. However, by contrast, the addition of further surfactants to the solution yielded large size growth of particles.
# [7] = test system: MSSA and MRSA infections; details: murine model; cited from earlier work
# [8] = single IV dose 50 mg/kg, 48 h post infection
# [9] = single IV dose, Probit analysis
smiles,measurement,setting,value
"CN[C@H](CC(C)C)C(=O)N[C@H]1C(=O)N[C@@H](CC(N)=O)C(=O)N[C@H]2C(=O)N[C@H]3C(=O)N[C@H](C(=O)N[C@H](C(=O)O)c4cc(O)cc(O)c4-c4cc3ccc4O)[C@H](O)c3ccc(c(Cl)c3)Oc3cc2cc(c3O[C@@H]2O[C@H](CO)[C@@H](O)[C@H](O)[C@H]2O[C@H]2C[C@](C)(N)[C@H](O)[C@H](C)O2)Oc2ccc(cc2Cl)[C@H]1O [Vancomycin, vancomycin]",% survival,[1]; [8],100%
same,Survival,[1]; [8],18/18
same,PD50 (95% C.I.),[1]; [9],<50 mg/kg
same,% survival,[2]; [8],100%
same,Survival,[2]; [8],18/18
same,PD50 (50% protective dose),[2]; [9],<50 mg/kg
"CC(O)COC[C@H]1O[C@@H]2O[C@H]3[C@H](O)[C@@H](O)[C@@H](O[C@H]4[C@H](O)[C@@H](O)[C@@H](O[C@H]5[C@H](O)[C@@H](O)[C@@H](O[C@H]6[C@H](O)[C@@H](O)[C@@H](O[C@H]7[C@H](O)[C@@H](O)[C@@H](O[C@H]8[C@H](O)[C@@H](O)[C@@H](O[C@H]1[C@H](O)[C@H]2O)O[C@@H]8COCC(C)O)O[C@@H]7COCC(C)O)O[C@@H]6COCC(C)O)O[C@@H]5COCC(C)O)O[C@@H]4COCC(C)O)O[C@@H]3COCC(C)O (stereo partly drawn) [HPBCD, hydroxypropyl-beta-cyclodextrin]",Maximum reported safe daily dose,[3],16 g/day
"CCc1cc(O)c(Oc2ccc(C(N)=O)cc2F)cc1F [compound (I), 4-(4-ethyl-5-fluoro-2-hydroxyphenoxy)-3-fluorobenzamide]",In vitro activity,[4],highly active
same,Water-solubility,[5],relatively poor
same,Concentration at which compound (I) may be formulated,"[5]; prior art historical formulation (water, glucose monohydrate, HPBCD)",up to 11.3 mg/mL
same,Particle size of suspension,[6],4.4 μm
same,In vivo activity,[7],active in vivo
